Experimental data reported in patent US9234006B2, “Compounds” (Novacta Biosystems Limited, priority 2011, dated 2016).
Counter-ions that a name gives are not always drawn. Like-named read-outs stand apart in the source and are kept apart here. Marks after values point to notes of the source that are not given here. Where a SMILES comes first, the peptide text is derived from it. Bridges are numbered along the chain shown (N, C = ends). [ ]: non-standard residue; d: D form. The star is where a group is joined. ξ: configuration not given here. Thr(3ξ) = CC(O)[C@H](N)C(=O)O; Dab = NCC[C@H](N)C(=O)O; X1 = CCCCCCC(O)C(=O)*; GABA = NCCCC(=O)O

Tests used:
A. baumannii ATCCBAA-747 = experiment: MIC susceptibility testing, broth microdilution in CaMHB; format: cell-based, Acinetobacter baumannii
How it was run: (§1)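 Inoculum prep: 3 to 4 colonies into CaMHB, 18-20 h at 37° C/250 rpm; 100-fold subculture to OD600 0.2-0.3; further 100-fold dilution to inoculate. Duplicate determinations.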

A. baumannii NCTC13423 = experiment: as above; format: cell-based, Acinetobacter baumannii
How it was run: as §1

[1] = tested on: A. baumannii clinical isolates and resistant strains; format: cell-based; conditions: clinical isolates and resistant strains
Experimental: (§2) The in vitro antibacterial activities of the compounds of examples 2 and 6 were evaluated against a panel of […] Gram-negative bacterial isolates alongside Colistin. The panel consisted of 100 clinical isolates of each of A. baumannii, E. coli, K. pneumoniae and P. aeruginosa. The panel represented the current epidemiology in Europe and the USA and included a number of relevant strains with defined resistant phenotypes to current clinically-used antibacterial agents. These resistant strains included 20 A. baumannii, 22 E. coli, 25 K. pneumoniae and 20 P. aeruginosa strains.
(§3) All compounds were tested up to a maximum concentration of 64 μg/mL with the exception of colistin, which was evaluated up to a maximum concentration of 16 μg/mL.

[2] = tested on: E. coli clinical isolates and resistant strains; format: cell-based; conditions: clinical isolates and resistant strains
Experimental: as §2, §3

[3] = tested on: K. pneumoniae clinical isolates and resistant strains; format: cell-based; conditions: clinical isolates and resistant strains
Experimental: as §2, §3

[4] = parameters: species or system rats; conditions: rat, in vivo, 8 mg/kg
Experimental: Colistin and the example compounds were prepared in saline. Compounds were introduced via the jugular canula twice a day 7 hours apart for seven days. […] The dose regimen is set out in Table 8 below.

HK-2 cell line = conditions: 24 h incubation, resazurin reduction; Table 7
Experimental: The renal cell toxicity of the compounds was assessed in an in vitro assay using the HK-2 cell line, an immortalized proximal tubule cell line derived from a normal human kidney. The endpoint to describe the toxicity of the compounds was the reduction of resazurin correlating with the metabolic activity of the cells.
Cells were cultured in 150 cm^2 flasks in 25 mL supplemented KSF (with 5 ng/mL EGF and 50 μg/mL BPE). Cells were maintained at 70% confluence with a maximum of 25 passages. Day 1: Media was removed and cells were washed with 10 ml DPBS. […] After 1 to 2 minutes incubation, 14 ml media was added to the flask to inactivate the trypsin. The cell suspension was transferred to a centrifuge tube and the cells pelleted at 1000 rpm for 6 minutes. The cell pellet was then resuspended in fresh media supplemented with EGF and BPE. […] 7500 cells were dispensed in each well in a volume of 160 μl and incubated at 37° C. for 24 h.
Day 2: Test compounds were prepared directly into the media. […] The microtiter plates were removed from the incubator and the media replaced with 100 μl of the dilutions of the compound solution. Every set of concentration was done in triplicate, and positive and negative controls were added to each plate. The plates were then incubated for 24 h at 37° C. with 5% CO2 in a humidified atmosphere.
Day 3: The reagent containing the resazurin (CellTiter-Blue, Promega) was diluted in PBS (1:4) and added at 20% (v/v) to each well. The plates were then incubated at 37° C. for 2 h before the fluorescent reduction product was detected.
Media only background values were subtracted before the data was analysed using GraphPad Prism. Compound concentration values were plotted as log values to enable a dose-response curve to be fitted and IC50 values determined (Table 7).
The renal cell toxicity of the additional example compounds was assessed in an in vitro assay using the HK-2 cell as described in the example above.

[5] = tested on: Escherichia coli isolate ATCC25922; format: in vivo; conditions: thigh
Experimental: Groups of 5 female specific-pathogen-free CD-1 mice weighing 22±2 g were used. The animals were made neutropenic by intraperitoneal administration of cyclophosphamide on days −4 (150 mg/kg) and −1 (100 mg/kg). […] Examples 2, 4, 5, 6, 7, 8, 10, 11 and polymyxin B were prepared in Normal Saline at 2 mg/mL and the solution was adjusted to pH 6-7 by addition of 0.1M H2SO4 or 4.2% NaHCO3 as required. Twenty-four hours after infection, the mice were euthanized humanely. The muscle of the right thigh of each animal was harvested, homogenized, serially diluted and plated on Brain Heart Infusion agar+0.5% charcoal (w/v) for CFU determination. Decrease of the total CFU of right thigh as compared to control counts at 24 hrs post-infection was determined for each dose group. […] The in vivo efficacy of the compound of Example 14 was evaluated in a mouse thigh infection model of E. coli. using the methods described in the examples above. The result is summarized in Table 5A in comparison with Polymyxin B.

[6] = Table 4A, different batches of cation-adjusted Muller-Hinton broth

| Compound | MIC (A. baumannii ATCCBAA-747; Table 4) [micrograms/mL] | MIC (A. baumannii ATCCBAA-747; [6]) [micrograms/mL] | MIC (A. baumannii NCTC13423; Table 4) [micrograms/mL] | MIC (A. baumannii NCTC13423; [6]) [micrograms/mL] | MIC50 Clinical isolates [1] [µg/mL] | MIC50 Resistant strains [1] [µg/mL] | MIC90 Clinical isolates [1] [µg/mL] | MIC90 Resistant strains [1] [µg/mL] | MIC Range Resistant strains [1] [µg/mL] | MIC50 Clinical isolates [2] [µg/mL] | MIC50 Resistant strains [2] [µg/mL] | MIC90 Clinical isolates [2] [µg/mL] | MIC90 Resistant strains [2] [µg/mL] | MIC Range Resistant strains [2] [µg/mL] | MIC50 Clinical isolates [3] [µg/mL] | MIC50 Resistant strains [3] [µg/mL] | MIC90 Clinical isolates [3] [µg/mL] | MIC90 Resistant strains [3] [µg/mL] | levels of the renal biomarker NAG in urine compared to Colistin at the same dose regimen [4] | levels of the renal biomarker albumin in urine compared to Colistin at the same dose regimen [4] | other results |
| --- | --- | --- | --- | --- | --- | --- | --- | --- | --- | --- | --- | --- | --- | --- | --- | --- | --- | --- | --- | --- | --- |
| CCCCCCC(O)C(=O)N[C@H](C(=O)N[C@@H](CCN)C(=O)N[C@H]1CCNC(=O)[C@H](C(C)O)NC(=O)[C@H](CCN)NC(=O)[C@H](CCN)NC(=O)[C@H](CC(C)C)NC(=O)[C@@H](Cc2ccccc2)NC(=O)[C@H](CCN)NC1=O)C(C)O (stereo partly drawn) [Example 2, [2(R,S)-2-Hydroxyoctanoyl] Polymyxin B Nonapeptide, Sulphate Salt] (X1-[Thr(3ξ)][Dab][Dab][Dab][dF]L[Dab][Dab][Thr(3ξ)]; lactam 3-C) | 2 | 2 | 1 | 1 | 4 | 4 | 8 | 4 | 2 to 4 | 2 | 1 | 4 | 2 | 0.5 to 4 | 8 | 8 | 32 | 32 | significantly reduced levels | significantly reduced levels | MIC Range Clinical isolates [1]: 1 to 32 µg/mL; MIC Range Clinical isolates [2]: 1 to 16 µg/mL; levels of the renal biomarker cystatin C in urine compared to Colistin at the same dose regimen [4]: significantly reduced levels |
| CC(C)C[C@@H]1NC(=O)[C@@H](Cc2ccccc2)NC(=O)[C@H](CCN)NC(=O)[C@@H](NC(=O)[C@H](CCN)NC(=O)[C@@H](NC(=O)CCCN)[C@@H](C)O)CCNC(=O)[C@H]([C@@H](C)O)NC(=O)[C@H](CCN)NC(=O)[C@H](CCN)NC1=O [Example 6, 4-Aminobutanoyl Polymyxin B Nonapeptide, Sulphate Salt] (H-[GABA]T[Dab][Dab][Dab][dF]L[Dab][Dab]T; lactam 4-C) | – | – | – | – | 2 | 2 | 8 | 4 | 1 to 4 | 2 | 0.5 | 8 | 4 | 0.06 to 4 | >64 | >64 | >64 | >64 | significantly reduced levels | significantly reduced levels | IC50 HK-2 cells (HK-2 cell line): 154 µg/mL; levels of the renal biomarker cystatin C in urine compared to Colistin at the same dose regimen [4]: significantly reduced levels |
| Polymyxin B [reference compound] | 0.25 | 0.125 | 0.25 | <0.06 | – | – | – | – | – | – | – | – | – | – | – | – | – | – | – | – | Mean log10 CFU reduction vs. control ([5]; neutropenic CD-1 mice, total daily dosage 3 mg/kg (1.5 mg/kg BID) subcutaneous, 24 h post-infection, Table 5): 2.5 ^a log10 CFU; Mean log10 CFU reduction vs. control ([5]; neutropenic CD-1 mice, total daily dosage 10 mg/kg (5 mg/kg BID) subcutaneous, 24 h post-infection, Table 5): 4.2 ^a log10 CFU; Mean log10 CFU reduction vs. control ([5]; neutropenic mice, total daily dosage 3 mg/kg, additional study, Table 5A): 3.75 log10 CFU; Mean log10 CFU reduction vs. control ([5]; neutropenic mice, total daily dosage 10 mg/kg, additional study, Table 5A): 4.87 log10 CFU; IC50 HK-2 cells (HK-2 cell line): 11^b μg/mL |
